Converted amounts (≈) assume the structure as drawn. Like-named read-outs stand apart in the source and are kept apart here. Numbered stars: 1 amine (or outer) side, 2 acyl side, 3 side chain; on linkers, the order of the positions; unused ones are H or OH. Bridge positions count the residues as written; N and C are the ends. Square brackets hold non-standard residues; d marks the D form. Peptide text beside a SMILES is read from it. * marks the point of attachment. X1 = O=C1C[C@@H](C(=O)[*:2])N([*:1])C[C@H]1CS[C@@H]1CN2CCC1CC2; NMePhe(4-NMe2) = CN[C@@H](Cc1ccc(N(C)C)cc1)C(=O)O; Picolinoyl(3-OH) = O=C(c1ncccc1O)*; Phg = N[C@H](C(=O)O)c1ccccc1; Orn = NCCC[C@H](N)C(=O)O; dAbu = CC[C@@H](N)C(=O)O; Dap = NC[C@H](N)C(=O)O
Assays:
[1] = system: E. coli BAS901/pUC19ermB; assay: microbe, parasite or virus in culture; type: cell-based, Escherichia coli
Excerpt: In order to test the effects of 5 against E. coli BAS901 harboring ermB, the 23S rRNA methyltransferase, the plasmid pJIM2246 ΩermB [13] was purified from Staphylococcus aureus RN4220/pJIM2246 ΩermB. ErmB was subsequently amplified from pJIM2246 ΩermB via polymerase chain reaction using primers 5′-[…] AND 5′-[…] (engineered restriction enzyme sites are underlined). The amplified product was subcloned into pCR4Blunt-TOPO (Invitrogen) and transformed into E. coli XL10 GOLD, resulting in ermB being positioned in frame with the lacZ gene. This construct, designated pTOPOerm, was then used as template in the reamplification of ermB using a new forward primer containing a strong ribosomal binding consensus sequence (shown in italics); 5-[…]. […]
The antibiotic activity of the peptides synthesized in this study was initially assayed using a disk assay where samples were applied to sterile paper disks placed on a fresh lawn of bacterial culture on appropriate agar plates as required by the organism. These were then incubated for 16 hr at 37° C. and the zone of growth inhibition surrounding the disks recorded. For quantitative assessment of antibiotic activity in liquid culture, the minimal inhibitory concentration (MIC) of peptides was determined by serial dilution studies. […]

[2] = system: E. coli (ATCC 25922); assay: disk assay, zone of growth inhibition; type: cell-based, Escherichia coli; details: wild-type
Method: (§1) The antibiotic activity of the peptides synthesized in this study was initially assayed using a disk assay where samples were applied to sterile paper disks placed on a fresh lawn of bacterial culture on appropriate agar plates as required by the organism. These were then incubated for 16 hr at 37° C. and the zone of growth inhibition surrounding the disks recorded. For quantitative assessment of antibiotic activity in liquid culture, the minimal inhibitory concentration (MIC) of peptides was determined by serial dilution studies. The peptides and standard antibiotics were dissolved in DMSO and the final concentration of DMSO in the liquid cultures was 5%. Both S. aureus RN4220 and E. coli BAS901 were able to grow efficiently at this level of DMSO.
(§2) Crude material from the initial synthesis reactions was used to test the potential of the analogues as antibiotics in susceptibility assays where a solution of the compound was placed on a paper disk on a lawn of bacteria. As described above, E. coli BAS901 is deficient in the Imp/OstA protein, an outer membrane protein, involved in cell envelope biogenesis (1, 5). […] These were then incubated for 16 hrs at 37° C. and the zone of growth inhibition surrounding the disks recorded.

[3] = system: E. coli BAS901/pUC19; assay: disk assay, zone of growth inhibition; type: cell-based, Escherichia coli
Excerpt: A hyperpermeable E. coli strain, E. coli BAS901, harboring a plasmid constitutively expressing Vgb was created for in vivo studies. The plasmids pVGB, described previously in [14], and […] were digested with Xbal and BamHI, to yield an approximately 1 kb fragment containing a ribosomal binding site upstream of vgb, and linearized pUC19 backbone, respectively. The vgb fragment was then subcloned into the linearized pUC19 backbone downstream of pLac yielding pUC19-VGB. Both pUC19-VGB and pUC19 were transformed E. coli BAS901.
as §1
(§3) Crude material from the initial synthesis reactions was used to test the potential of the analogues as antibiotics in susceptibility assays where a solution of the compound was placed on a paper disk on a lawn of bacteria. As described above, E. coli BAS901 is deficient in the Imp/OstA protein, an outer membrane protein, involved in cell envelope biogenesis (1, 5). […] The antibiotic activity of the peptides synthesized in this study was initially assayed using a disk assay where samples were applied to sterile paper disks placed on a fresh lawn of bacterial culture on Tryptic Soya, Luria Broth, or Brain Heart Infusion Agar plates. These were then incubated for 16 hrs at 37° C. and the zone of growth inhibition surrounding the disks recorded.

[4] = system: S. saprophyticus (ATCC 15305); assay: disk assay, zone of growth inhibition; type: cell-based, Staphylococcus saprophyticus
Method: as §1, §2

[5] = system: B. subtilis L5706; assay: disk assay, zone of growth inhibition; type: cell-based, Bacillus subtilis
Method: as §1, §2

[6] = system: B. subtilis W23; assay: disk assay, zone of growth inhibition; type: cell-based, Bacillus subtilis
Method: as §1, §2

[7] = system: Staphylococcus aureus (ATCC 25923); assay: disk assay, zone of growth inhibition; type: cell-based
Method: as §1, §3

[8] = system: Salmonella enterica (ATCC 14028); assay: disk assay, zone of growth inhibition; type: cell-based; details: serovar Typhimurium
Method: as §1, §3

[9] = system: Bacillus subtilis 1A752; assay: disk assay, zone of growth inhibition; type: cell-based
Method: as §1, §3

[10] = system: Staphylococcus aureus (ATCC 49476); assay: disk assay, zone of growth inhibition; type: cell-based
Method: as §1, §3

[11] = system: Staphylococcus aureus (ATCC 43300); assay: disk assay, zone of growth inhibition; type: cell-based; details: methicillin resistant, oxacillin resistant
Method: as §1, §3

[12] = system: Enterococcus faecalis (ATCC 51299); assay: disk assay, zone of growth inhibition; type: cell-based; details: vancomycin, aminoglycoside resistant
Method: as §1, §3

[13] = system: Staphylococcus aureus (ATCC 29213); assay: disk assay, zone of growth inhibition; type: cell-based
Method: as §1, §3

[14] = system: Streptococcus pneumoniae (ATCC 49619); assay: disk assay, zone of growth inhibition; type: cell-based
Method: as §1, §3

[15] = system: Enterococcus faecium CP54-32; assay: disk assay, zone of growth inhibition; type: cell-based
Method: as §1, §3

[16] = system: Micrococcus luteus; assay: disk assay, zone of growth inhibition; type: cell-based
Method: as §1, §3

[17] = system: B. subtilis 1A752; assay: bacteriostatic or bactericidal action; type: cell-based, Bacillus subtilis
[18] = system: E. coli BAS901; assay: checker-board synergy test with dalfopristin; type: cell-based, Escherichia coli; details: microtiter plates, checker-board technique
Excerpt: Quinupristin and dalfopristin act in a synergistic manner.

[19] = system: Bacillus subtilis; assay: growth inhibition, text summary of disk assay; type: cell-based; details: strain not given
Method: as §1, §3

[20] = system: Enterococcus faecalis; assay: growth inhibition, text summary of disk assay; type: cell-based; details: strain not given
Method: as §1, §3

[21] = system: Staphylococcus epidermidis; assay: growth inhibition, text summary of disk assay; type: cell-based; details: strain not given
Method: as §1, §3

[22] = system: Streptococcus pneumoniae; assay: growth inhibition, text summary of disk assay; type: cell-based; details: strain not given
Method: as §1, §3

[23] = target: T1, Vgb (Staphylococcus aureus, UniProt P17978); assay: inhibition of the streptogramin inactivating enzyme Vgb; type: biochemical; details: concentrations of up to 0.4 mM
T1 construct: made in house
Method: On-resin chemical cyclization of 5 provided sufficient material for more extensive analysis of antibacterial activity and investigation of its ability to inhibit the streptogramin inactivating enzyme Vgb. This enzyme however was insensitive to 5 in concentrations of up to 0.4 mM. […] Regardless of the actual mechanism, the design of these streptogramin-tyrocidine chimeras of the present invention result in antibiotics that are not recognized by a streptogramin inactivation enzyme.

[24] = system: E. coli BAS901; assay: bacteriostatic or bactericidal action; type: cell-based, Escherichia coli

T1 sequence (P17978 whole entry): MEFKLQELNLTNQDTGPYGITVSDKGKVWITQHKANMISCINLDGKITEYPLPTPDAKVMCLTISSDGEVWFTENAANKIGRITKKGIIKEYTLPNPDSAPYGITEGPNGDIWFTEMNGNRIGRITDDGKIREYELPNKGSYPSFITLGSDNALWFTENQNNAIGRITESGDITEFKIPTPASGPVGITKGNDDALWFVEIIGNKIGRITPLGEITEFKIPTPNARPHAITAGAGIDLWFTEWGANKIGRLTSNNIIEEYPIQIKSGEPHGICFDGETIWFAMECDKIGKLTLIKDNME

SMILES: CC[C@H]1NC(=O)[C@@H](NC(=O)c2ncccc2O)[C@@H](C)OC(=O)[C@H](c2ccccc2)NC(=O)[C@@H]2CC(=O)[C@H](CS[C@@H]3CN4CCC3CC4)CN2C(=O)[C@H](Cc2ccc(N(C)C)cc2)N(C)C(=O)[C@@H]2CCCN2C1=O [Quinupristin, quinupristin, reference compound] ({Picolinoyl(3-OH)}-T[dAbu]P[NMePhe(4-NMe2)][X1][Phg]; ester 1-C)
- MIC ([1]; Escherichia coli, BAS901/PUC19ERMB): 16 µg/mL (≈ 15.7 µM)
- Zone of Inhibition [2]: n.i.
- Zone of Inhibition [3]: 2.2 cm
- Zone of Inhibition ([3]; listed as quinupristin): exhibit a zone of inhibition
- Zone of Inhibition [4]: 2.3 cm
- Zone of Inhibition [5]: 2.1 cm
- Zone of Inhibition [6]: 2.1 cm
- Zone of Inhibition [7]: 2.2 cm
- Zone of Inhibition [8]: n.i.
- Zone of Inhibition [9]: 1.8 cm
- Zone of Inhibition [10]: 2.6 cm
- Zone of Inhibition [11]: n.i.
- Zone of Inhibition [12]: n.i.
- Zone of Inhibition [13]: 2.3 cm
- Zone of Inhibition [14]: 2.0 cm
- Zone of Inhibition [15]: 1.8 cm
- Zone of Inhibition [16]: 2.7 cm

SMILES: CC(C)C[C@@H]1NC(=O)[C@H](CCCN)NC(=O)[C@H]([C@@H](C)O)NC(=O)[C@@H](NC(=O)c2ncccc2O)CNC(=O)[C@H](Cc2ccccc2)NC(=O)[C@@H]2CCCN2C(=O)[C@@H](Cc2ccccc2)NC1=O [Compound 5] ({Picolinoyl(3-OH)}-[Dap]T[Orn]L[dF]PF; lactam 1-C)
- MIC ([1]; E. coli BAS901/pUC19ermB (Erm methyltransferase)): 32 µg/mL (≈ 34.5 µM)
- Zone of Inhibition [2]: n.i.
- bacteriostatic or bactericidal [17]: bacteriostatic and not bactericidal
- synergy with dalfopristin [18]: additive, not synergistic
- growth inhibition activity [19]: active
- growth inhibition activity [20]: active
- growth inhibition activity [21]: active
- growth inhibition activity [22]: active
- Zone of Inhibition [7]: n.i.
- Zone of Inhibition [8]: n.i.
- Zone of Inhibition [10]: n.i.
- Zone of Inhibition [11]: n.i.
- Zone of Inhibition [12]: n.i.
- Zone of Inhibition [13]: n.i.
- Zone of Inhibition [14]: n.i.
- inhibition of Vgb [23]: insensitive
- bacteriostatic or bactericidal [24]: bacteriostatic and not bactericidal
